Key:
Test in all cases: relative viability (nuclei count vs DMSO), 5 days (fraction); higher = more cells survive
Cediranib + AZD7762 = compound: COc1cc2c(Oc3ccc4[nH]c(C)cc4c3F)ncnc2cc1OCCCN1CCCC1 [Cediranib] + NC(=O)Nc1cc(-c2cccc(F)c2)sc1C(=O)N[C@H]1CCCNC1 [AZD7762] (partner 0.2 µM)
Summary of the method: (§1)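 Relative viability was taken as the ratio of nuclei in treated wells to nuclei in vehicle wells. Lung cancer cell lines in 1536-well plates received compounds by pin tool one day after seeding, either one drug alone or a fixed anchor-drug dose plus five library-drug doses (not always all listed) in √10 steps. Nuclei were counted on 4× images after 5 days of treatment, and values are medians of duplicate plates.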

Decitabine + Pictilisib = compound: Nc1ncn([C@H]2C[C@H](O)[C@@H](CO)O2)c(=O)n1 [Decitabine] + CS(=O)(=O)N1CCN(Cc2cc3nc(-c4cccc5[nH]ncc45)nc(N4CCOCC4)c3s2)CC1 [Pictilisib] (partner 1 µM)
Summary of the method: as §1

Decitabine + Linsitinib = compound: Nc1ncn([C@H]2C[C@H](O)[C@@H](CO)O2)c(=O)n1 [Decitabine] + C[C@]1(O)C[C@@H](c2nc(-c3ccc4ccc(-c5ccccc5)nc4c3)c3c(N)nccn32)C1 [Linsitinib] (partner 1 µM)
Summary of the method: as §1

[1] = compound: O=C(C[C@H]1NCCC[C@@H]1O)Cn1cnc2cc(Br)c(Cl)cc2c1=O (racemic) [Halofuginone] + Nc1nc2[nH]cc(CCc3ccc(C(=O)N[C@@H](CCC(=O)O)C(=O)O)cc3)c2c(=O)[nH]1 [Pemetrexed] (partner 0.2 µM)
Summary of the method: as §1

Cell Line | relative viability (Cediranib + AZD7762; first compound 0.04 µM) | relative viability (Cediranib + AZD7762; first compound 0.1265 µM) | relative viability (Cediranib + AZD7762; first compound 0.4 µM) | relative viability (Cediranib + AZD7762; first compound 1.265 µM) | relative viability (Cediranib + AZD7762; first compound 4 µM) | relative viability (Decitabine + Pictilisib; first compound 0.1265 µM) | relative viability (Decitabine + Pictilisib; first compound 0.4 µM) | relative viability (Decitabine + Pictilisib; first compound 1.265 µM) | relative viability (Decitabine + Pictilisib; first compound 4 µM) | relative viability (Decitabine + Linsitinib; first compound 0.04 µM) | relative viability (Decitabine + Linsitinib; first compound 0.1265 µM) | relative viability (Decitabine + Linsitinib; first compound 0.4 µM) | relative viability (Decitabine + Linsitinib; first compound 1.265 µM) | relative viability (Decitabine + Linsitinib; first compound 4 µM) | relative viability ([1]; first compound 0.001 µM) | relative viability ([1]; first compound 0.003162 µM) | relative viability ([1]; first compound 0.01 µM) | relative viability ([1]; first compound 0.03162 µM) | relative viability ([1]; first compound 0.1 µM) | relative viability (Decitabine + Pictilisib; first compound 0.04 µM)
LK-2 | 0.463 | 0.275 | 0.327 | 0.284 | 0.319 | 0.607 | 0.505 | 0.401 | 0.396 | 0.462 | 0.637 | 0.509 | 0.502 | 0.387 | 0.25 | 0.212 | 0.294 | 0.249 | 0.241 | 
HCC-827 | 0.226 | 0.455 | 0.193 | 0.163 | 0.198 | 0.63 | 0.618 | 0.505 | 0.62 |  | 0.501 | 0.396 | 0.324 | 0.93 | 0.238 | 0.237 | 0.266 | 0.27 | 0.239 | 0.511
NCI-H1993 |  | 0.923 | 0.819 | 0.588 | 0.755 | 0.973 | 0.788 | 0.9 | 0.725 | 0.767 | 0.745 | 0.763 | 0.718 | 0.659 | 0.664 | 0.577 | 0.564 | 0.652 | 0.508 | 0.866
NCI-H647 | 0.498 | 0.462 | 0.389 | 0.404 | 0.475 | 0.566 | 0.42 | 0.191 | 0.214 | 0.989 | 0.874 | 0.759 | 0.234 | 0.237 | 0.191 | 0.171 | 0.172 | 0.155 | 0.0946 | 0.504
NCI-H460 | 0.727 | 0.679 | 0.584 | 0.574 | 0.616 | 0.549 | 0.524 | 0.373 | 0.334 | 0.651 | 0.855 | 0.669 | 0.168 | 0.114 | 0.0584 | 0.0659 | 0.0638 | 0.0536 | 0.0574 | 0.389
EMC-BAC-2 | 1.06 | 0.952 | 1.11 | 1.07 | 1.15 | 0.557 | 0.468 | 0.411 | 0.37 | 0.797 | 0.81 | 0.652 | 0.612 | 0.583 | 0.482 | 0.462 | 0.486 | 0.524 | 0.438 | 0.529
NCI-H23 | 0.222 | 0.383 | 0.246 | 0.331 | 0.286 | 0.59 | 0.281 | 0.266 | 0.196 | 0.571 | 0.381 | 0.252 | 0.215 | 0.229 | 0.637 | 0.582 | 0.494 | 0.521 | 0.495 | 0.528
NCI-H1793 | 0.521 | 0.492 | 0.418 | 0.329 | 0.394 | 0.351 | 0.245 | 0.302 | 0.224 | 0.848 | 0.947 | 0.854 | 0.5 | 0.434 | 0.906 | 0.734 | 0.7 | 0.843 | 0.515 | 0.308
A-427 | 0.816 |  | 0.685 | 0.659 | 0.707 | 0.663 | 0.244 | 0.359 | 0.219 | 0.807 | 0.674 | 0.446 | 0.368 | 0.275 | 1 | 1.03 | 0.945 | 0.946 | 0.887 | 0.42
NCI-H322M | 0.621 | 0.671 | 0.495 | 0.424 | 0.565 | 0.537 | 0.53 | 0.397 | 0.424 | 0.773 | 0.844 | 0.737 | 0.497 | 0.472 | 0.633 | 0.63 | 0.554 | 0.586 | 0.398 | 0.408
NCI-H2085 | 0.966 | 0.987 | 0.921 | 1.11 | 0.997 | 0.462 | 0.408 | 0.403 | 0.404 | 0.744 | 0.615 | 0.508 | 0.392 | 0.372 | 0.93 | 0.873 | 0.872 | 1.03 | 0.783 | 0.454
NCI-H2087 | 1.08 | 1.34 | 1.26 | 1.23 | 1.43 | 0.779 | 0.519 | 0.404 | 0.336 | 0.659 | 0.678 | 0.591 | 0.41 | 0.384 | 0.673 | 0.657 | 0.686 | 0.709 | 0.489 | 0.762
HCC-366 | 0.41 | 0.314 | 0.181 | 0.376 | 0.266 | 0.221 | 0.229 | 0.11 | 0.0886 | 0.535 | 0.743 | 0.339 | 0.14 | 0.111 | 0.157 | 0.167 | 0.156 | 0.135 | 0.12 | 0.221
NCI-H2126 | 0.985 | 1.08 | 1.01 | 0.87 | 1.05 | 0.543 | 0.463 | 0.39 | 0.438 | 0.698 | 0.677 | 0.591 | 0.533 | 0.489 | 0.719 | 0.655 | 0.624 | 0.68 | 0.571 | 0.517
HCC-78 | 0.719 | 1.01 | 0.659 | 0.532 | 0.645 | 0.241 | 0.229 | 0.21 | 0.228 | 0.538 | 0.545 | 0.407 | 0.371 | 0.319 | 0.906 | 0.926 | 0.885 | 0.937 | 0.889 | 0.233
LCLC-97TM1 | 0.418 |  | 0.329 | 0.244 | 0.287 | 0.166 | 0.0979 | 0.105 | 0.117 | 0.183 | 0.199 | 0.166 | 0.116 | 0.213 | 0.183 | 0.156 | 0.189 | 0.16 | 0.153 | 0.145
